This is an account of results in patent publication US20180354962A1, “[{[2,3-Dihydro-1H-inden-1-yl]amino}-2H,3H-furo[3,2-b]pyridin-3-yl]acetic acids, pharmaceutical compositions and uses thereof” (Boehringer Ingelheim International GmbH, priority 2015, published 2018).

Data set [1] deals with T1, cytochrome P450 2C9-isoenzyme (Homo sapiens, UniProt P11712).
T1 construct: is assayed at 37° C. with human liver microsomes; from tissue; host or cells: human liver microsomes
The data set can be described thus: Inhibition of CYP-2C9 (diclofenac hydroxylation, human liver microsomes). In kind it is in vitro ADME. Conditions: human liver microsomes 0.1 mg/mL, diclofenac 10 μM, 37° C. As for the experimental part: (§1) All assays are carried out on a robotic system in 96 well plates. The final incubation volume contains TRIS buffer (0.1 M), MgCl2 (5 mM), human liver microsomes (0.1 mg/mL), diclofenac (10 μM) and the test compound at five different concentrations or no compound (high control) in duplicate (e.g. highest concentration 10-50 μM with subsequent serial 1:4 dilutions). Following a short preincubation period, reactions are started with the cofactor (NADPH, 1 mM) and stopped by cooling the incubation down to 8° C. and subsequently by addition of one volume of acetonitrile. An internal standard solution—the stable isotope 13C6-hydroxydiclofenac—is added after quenching of incubations. Peak area analyte (=metabolite formed) and internal standard is determined by LC-MS/MS. The resulting peak area ratio analyte to internal standard in these incubations is compared to a control activity containing no test compound. Within each of the assay runs, the IC50 of a positive control inhibitor (sulfaphenazole) is determined. Experimental IC50 values are calculated by least square regression according to the following equation: % control activity=(100% control activity/(1+(I/IC50)S)))−B with I=inhibitor concentration S=slope factor B=background activity (lower plateau of the inhibition curve) If the inhibition of the reaction is already >50% at the lowest concentration of the test compound, the IC50 is assigned “<lowest concentration tested” (usually <0.4 μM). If the inhibition of the reaction is still <50% at the highest concentration of the test compound, the IC50 is assigned “>highest concentration tested” (usually >50 μM).
(In general: Liver microsomes are a subcellular fraction often used to study metabolism.)

The target in data set [2] is T2, cytochrome P450 2C8-isoenzyme (Homo sapiens, UniProt P10632).
T2 construct: is assayed at 37° C. with human liver microsomes; from tissue; host or cells: human liver microsomes
T2 sequence (P10632 1-490): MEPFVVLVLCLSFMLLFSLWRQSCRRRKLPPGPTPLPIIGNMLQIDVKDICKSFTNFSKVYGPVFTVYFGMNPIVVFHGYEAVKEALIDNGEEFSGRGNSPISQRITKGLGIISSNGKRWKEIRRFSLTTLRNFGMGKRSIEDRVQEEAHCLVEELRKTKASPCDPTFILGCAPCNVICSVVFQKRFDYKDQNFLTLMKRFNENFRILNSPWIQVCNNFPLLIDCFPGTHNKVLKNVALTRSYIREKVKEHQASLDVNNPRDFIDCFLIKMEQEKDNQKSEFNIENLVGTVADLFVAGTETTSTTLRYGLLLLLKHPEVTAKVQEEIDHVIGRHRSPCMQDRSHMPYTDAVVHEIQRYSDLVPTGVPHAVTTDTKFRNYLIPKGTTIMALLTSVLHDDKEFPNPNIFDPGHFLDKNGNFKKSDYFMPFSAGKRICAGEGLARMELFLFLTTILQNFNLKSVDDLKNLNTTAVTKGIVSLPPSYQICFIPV
As to the kind of experiment: Inhibition of CYP-2C8 (amodiaquine deethylation, human liver microsomes). Type of data set: in vitro ADME. Conditions: human liver microsomes 0.05 mg/mL, amodiaquine 1 μM, 37° C. Here is the method: All assays are carried out on a robotic system in 96 well plates. The final incubation volume contains TRIS buffer (0.1 M), MgCl2 (5 mM), human liver microsomes (0.05 mg/mL), amodiaquine (1 μM) and the test compound at five different concentrations or no compound (high control) in duplicate (e.g. highest concentration 10-50 μM with subsequent serial 1:4 dilutions). Following a short preincubation period, reactions are started with the cofactor (NADPH, 1 mM) and stopped by cooling the incubation down to 8° C. and subsequently by addition of one volume of acetonitrile. An internal standard solution—the stable isotope d5-desethylamodiaquine—is added after quenching of incubations. Peak area analyte (=metabolite formed) and internal standard is determined by LC-MS/MS. The resulting peak area ratio analyte to internal standard in these incubations is compared to a control activity containing no test compound. Within each of the assay runs, the IC50 of a positive control inhibitor (Montelukast) is determined. Experimental IC50 values are calculated by least square regression according to the following equation: % control activity=(100% control activity/(1+(I/IC50)S))−B with I=inhibitor concentration; S=slope factor; B=background activity (lower plateau of the inhibition curve) If the inhibition of the reaction is already >50% at the lowest concentration of the test compound, the IC50 is assigned “<lowest concentration tested” (usually <0.4 μM). If the inhibition of the reaction is still <50% at the highest concentration of the test compound, the IC50 is assigned “>highest concentration tested” (usually >50 μM).

Data set [3] in a line: Chemical stability (degradation kinetics) in acidic aqueous media, HPLC. Type of data set: physicochemical. Conditions: acetonitrile/0.1 M aqueous HCl (2:3), pH ca. 1.2, 37° C. As for the experimental part:
Degradation kinetics is used to simulate chemical stability of compounds in the acidic part of the gastro intestinal tract. […] Their application as medical drugs to treat human diseases is therefore less restricted and troublesome. The chemical stability of the compounds of the invention at pH value of ca. 1.2 is determined as follows: Compound is dissolved in an HPLC vial either in a mixture of acetonitrile/0.1 M aqueous HCl (2:3; pH ca. 1.2) or in a mixture of acetonitrile/McIlvaine buffer pH 7.4 (2:3) to get a concentration of approximately 0.25 mg/ml. The vial was then transferred into an HPLC autosampler system and maintained at a temperature of 37° C. A first sample is taken and injected immediately into a standard HPLC system with a UV DAD detector. Further samples are injected after 2, 4, 6, 8 and 10 hours. Degradation of the compound is measured by determining the recovery rate of compound [%] for each injection using an HPLC standard gradient method. Therefore the peak area of the main peak for the first injection (AUt0) is determined and set as 100%. Peak area of the main peak is determined also for the further injections (AUtn, n=2, 4, 6, 8, 10) and expressed as fraction of […][%].

Another data set deals with human GPR40 receptor (Homo sapiens, UniProt O14842). As to the kind of experiment: IP1 accumulation measurements using the IPOne assay system. In kind it is cell-based. Conditions: 1321N1 cells stably expressing human GPR40; 1 h stimulation at 37° C. As for the experimental part: IP1 accumulation measurements using the IPOne assay system—1321N1 cells stably expressing human GPR40 receptor (Euroscreen, Belgium) are seeded 24 h before the assay in white 384-well plates in culture medium containing 10% FCS, 1% Na-Pyruvate and 400 μg/mL G418. IP1 is assayed according to the manufacturer's description (Cisbio Bioassays, France). In brief, the assay is started by substitution of the culture medium by stimulation buffer (Hepes 10 mM, CaCl2 1 mM, MgCl2 0.5 mM, KCl 4.2 mM, NaCl 146 mM, glucose 5.5 mM and LiCl 50 mM, pH 7.4). Cells are stimulated for 1 h at 37° C., 5% CO2 by addition of the compounds that are diluted in stimulation buffer containing LiCl. Assays are stopped by adding HTRF-conjugates (IP1-d2 and Anti-IP1 cryptate Tb) and lysis buffer, provided by the manufacturer. After an incubation time of 1 h at room temperature plates are measured using an EnVision™, Perkin Elmer. The obtained fluorescence ratios at 665/615 […] are then used to calculate the pEC50 values using Assay Explorer 3.3 Software (Accelrys, Inc.) by interpolation using an IP1 reference curve and subsequent sigmoidal curve fitting allowing for a variable hill slope.
Sequence of human GPR40 receptor (O14842 whole entry): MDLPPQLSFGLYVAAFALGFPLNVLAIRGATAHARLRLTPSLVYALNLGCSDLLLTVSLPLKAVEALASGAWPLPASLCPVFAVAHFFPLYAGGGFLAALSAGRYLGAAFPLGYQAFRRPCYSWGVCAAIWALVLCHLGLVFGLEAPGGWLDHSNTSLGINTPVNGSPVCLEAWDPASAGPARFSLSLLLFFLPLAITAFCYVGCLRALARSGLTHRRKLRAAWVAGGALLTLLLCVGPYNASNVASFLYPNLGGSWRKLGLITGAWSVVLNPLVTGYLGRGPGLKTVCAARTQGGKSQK

Data set [4] is described as follows: Aqueous solubility from DMSO stock, LC-UV. In kind it is physicochemical. Conditions: aqueous buffer, kinetic from dmso stock; buffer pH 2.2, 24 h shaking, 2.5% DMSO. As for the experimental part:
The aqueous solubility of the compounds of the invention is determined by comparing the amount dissolved in buffer to the amount in an acetonitrile/water (1/1) solution. Starting from a 10 mM DMSO stock solution aliquots are diluted with acetonitrile/water (1/1) or buffer, respectively. After 24 h of shaking, the solutions are filtrated and analyzed by LC-UV. The amount dissolved in buffer is compared to the amount in the acetonitrile solution. Solubility is usually being measured from 0.001 to 0.125 mg/mL at a DMSO concentration of 2.5%. If more than 90% of the compound is dissolved in buffer, the value is marked with “>”.

Another data set concerns the target T3, CYP2C9 (Homo sapiens, UniProt P11712).
T3 construct: from tissue; host or cells: human liver microsomes
As to the kind of experiment: Inhibition of CYP-2C9 (diclofenac hydroxylation, human liver microsomes). Conditions: probe diclofenac (10 μM), hydroxylation, human liver microsomes 0.1 mg/mL, 37° C. In kind it is in vitro ADME. As for the experimental part:
as §1

Values after ≈ are worked out from the molar mass of the structure shown.

T1 sequence (P11712 whole entry): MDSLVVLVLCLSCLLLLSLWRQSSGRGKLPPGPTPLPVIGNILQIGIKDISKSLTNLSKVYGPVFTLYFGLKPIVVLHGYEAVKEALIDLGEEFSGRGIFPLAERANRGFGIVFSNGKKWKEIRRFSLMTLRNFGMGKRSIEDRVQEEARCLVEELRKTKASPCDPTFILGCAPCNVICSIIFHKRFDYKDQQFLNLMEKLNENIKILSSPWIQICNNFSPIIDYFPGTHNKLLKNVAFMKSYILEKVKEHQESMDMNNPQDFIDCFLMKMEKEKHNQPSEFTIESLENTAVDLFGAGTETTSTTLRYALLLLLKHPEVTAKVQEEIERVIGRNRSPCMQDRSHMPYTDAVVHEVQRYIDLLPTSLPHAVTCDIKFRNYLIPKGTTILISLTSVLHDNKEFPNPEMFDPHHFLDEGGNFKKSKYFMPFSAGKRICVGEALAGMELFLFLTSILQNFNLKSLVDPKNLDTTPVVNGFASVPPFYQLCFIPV
T3 sequence (P11712 whole entry): as above

Take `Cc1cc(OCCC(C)(C)O)cc(C)c1-c1cccc2c1CC[C@H]2Nc1cnc2c(c1)OC[C@H]2CC(=O)O` [Example 4, 2-[(3S)-6-{[(1R)-4-[4-(3-Hydroxy-3-methylbutoxy)-2,6-dimethylphenyl]-2,3-dihydro-1H-inden-1-yl]amino}-2H,3H-furo[3,2-b]pyridin-3-yl]acetic acid]: the IC50 in data set [1] is > 50 µM; in data set [2], 43 µM. Moreover, the “Amount of degradation after 2 h” value in data set [3] is <0.5%. At human GPR40 receptor, this molecule yielded an EC50 of 0.064 µM. This molecule also displayed a solubility at 24 h in data set [4] of 57 µg/mL (≈ 110 µM).

As to `Cc1cc(-c2nnn(C)n2)cc(C)c1-c1ccc(F)c2c1CC[C@H]2Nc1cnc2c(c1)OC[C@H]2CC(=O)O` [Example 5, 2-[(3S)-6-{[(1R)-4-[2,6-Dimethyl-4-(2-methyl-2H-1,2,3,4-tetrazol-5-yl)phenyl]-7-fluoro-2,3-dihydro-1H-inden-1-yl]amino}-2H,3H-furo[3,2-b]pyridin-3-yl]acetic acid], the IC50 in data set [1] came out at 48 µM; in data set [2] it was 22 µM. Also, the “Amount of degradation after 2 h” value in data set [3] is given as 0.4%. In addition, the EC50 at human GPR40 receptor came to 0.026 µM. In addition, the solubility at 24 h in data set [4] was 7 µg/mL (≈ 13.6 µM).

Regarding `CC(C)c1ccccc1-c1cccc2c1CC[C@H]2Nc1cnc2c(c1)OCC2CC(=O)O` (stereo partly drawn) [Example 129, 2-(6-{[(1R)-4-[2-(Propan-2-yl)phenyl]-2,3-dihydro-1H-inden-1-yl]amino}-2H,3H-furo[3,2-b]pyridin-3-yl)acetic acid], the IC50 at CYP2C9 was 50 µM; in data set [2] it was 12 µM. Also, the response at human GPR40 receptor was half-maximal at 0.184 µM (EC50). In data set [4], this molecule registered a solubility at 24 h of 4 µg/mL (≈ 9.33 µM).

A word on the IC50: it is the concentration at which inhibition is half-maximal. A higher IC50 goes with weaker potency in that assay. In general, EC50 refers to the midpoint of the concentration-response curve. Read a high EC50 as a less potent agent. For orientation: solubility means the dissolved amount per volume that the medium holds. Low readings indicate a poorly soluble substance, high ones a readily soluble substance.
